Reference: PMC7995547, “ω‐Imidazolyl‐alkyl derivatives as new preclinical drug candidates for treating non‐alcoholic steatohepatitis” (Physiological Reports, 2021)

What was measured:
CYP2E1 = tested on: CYP2E1; set-up: method as in Diesinger et al., 2020; settings: ref Diesinger et al., 2020, cited from earlier work; for Inhibition of CYP2E1 (in words): in vitro experiments
[1] = tested on: HFD‐induced NASH rat model (liver and serum); experiment: End products of fat metabolism (liver and serum lipids), NASH rat model; format: in vivo, Wistar rats; settings: for Decrease in liver triglyceride levels compared to disease group / Reduction of the effect of HFD on liver triglyceride levels: average over doses (I‐ol, I‐an); for Decrease in liver triglyceride levels compared to disease group / Reduction of the effect of HFD on liver triglyceride levels / Decrease in liver phospholipid levels compared to disease group / Decrease in serum LDL cholesterol / Decrease in serum triglyceride levels compared to disease group: UDCA 40 mg/kg b.w.
Protocol: Studies were done using Wistar rats of female sex by the Institute of Pharmacology and Biochemistry at Minsk. The animals were 80–90 days old and weighed 180–200 g. They had free access to a liquid Lieber‐DeCarli (LDC) diet (Lieber et al., 2004) and were housed under standard conditions meaning a 12‐h light/dark cycle at 22 ± 2°C and 55 ± 5% humidity.
Group 1 was designated as the first control group; it was fed a normal standard solid diet. Group 2, as the second control group, was fed a standard amount of fat as a part of the liquid “physiological,” non‐high fat LDC diet. All other groups received the liquid ‘disease‐causing’ LDC diet (Table 2), including a high content of unsaturated fatty acids.
Both LDC diets were in a liquid form as produced by ssniff‐Spezialdiäten GmbH, Soest (Germany). The feed was provided over the entire experimental period of 16 weeks; however, the corresponding experimental substances were only administered in the last four weeks (Figure 3).
The experimental substances I‐ol, I‐an, and UDCA were dissolved in a 0.8% aqueous HPMC gel to obtain the following concentrations: (1) I‐ol at 0.4, 4, and 40 mg/kg body weight (b.w.), (2) I‐an at 0.4, 4, and 40 mg/kg b.w., and (3) UDCA at 40 mg/kg b.w. The Group‐2 and −3 rats received only HPMC as placebo. Each test encompassed 6–8 rats that were put up in a separate cage. The rats were fed ad libitum, and their intake per cage was controlled daily. In order to ensure an exact daily reproducible dosage, the experimental substances or only HPMC was administered intragastrically via oral gavage. Basically, the drug therapy of a chronic disease is the more efficient the higher the adherence of the affected patients. This is generally higher with peroral administration than with any other form of application. At the end of the experiment, the animals were sacrificed under fasting conditions, by aorta dissection and exsanguination, after anesthetizing with an intraperitoneal injection of 5% pentobarbital solution.
The activities of the liver enzymes aspartate aminotransferase (AST), alanine aminotransferase (ALT), alkaline phosphatase (AP), and γ‐glutamyl transferase (γ‐GT) as well as bilirubin and triglyceride levels in the serum were determined as described by the instructions of BIO‐LA‐tests kit (Erba Lachema, Brno, Czech Republic).
Extraction of lipids was performed using a solvent composed of chloroform and methanol (2:1 v/v). Thin‐layer chromatography (TLC) was used to separate off neutral lipids and phospholipids. Silicagel G 60 plates (0.25 mm thick) were used. The lipids were separated by ascending chromatography in a system composed of hexane:diethylic ether:glacial acetic acid (73:25:2; v/v/v). They were visualized by iodine vapor and the spots corresponding to triglycerides and cholesterol were scraped off and eluted with methanol for spectrophotometric evaluation. Triglyceride and cholesterol levels were determined using the BIO‐LA‐test kit (Erba Lachema, Brno, Czech Republic). Phospholipid concentration was determined by measuring the levels of phosphomolybdate using an inorganic phosphate reagent containing molybdate (Findlay & Evans, 1987). VLDL level was determined by using the manganese precipitation method (Burstein & Scholnick, 1973) after partial modification (Hirano et al., 2003).

Row | Compound | Inhibition of CYP2E1 (in words) (CYP2E1) | Dose dependence of the effect on liver phospholipid levels ([1]; 0.4, 4, 40 mg/kg b.w.) | Reduction of the effect of HFD on liver phospholipid levels ([1]; average over doses) [%] | Serum triglyceride level below the reference value of group 1 ([1]; average over doses) [%] | Decrease in liver triglyceride levels compared to disease group [1] [%] | Reduction of the effect of HFD on liver triglyceride levels [1] [%] | Decrease in liver phospholipid levels compared to disease group ([1]; average over doses) | Decrease in serum LDL cholesterol ([1]; average over doses) | Decrease in serum triglyceride levels compared to disease group ([1]; average over doses) | Liver phospholipid level above the reference value of group 1 ([1]; highest concentration (40 mg/kg b.w.)) [%] | Liver cholesterol level below the reference value of group 1 ([1]; low dose (0.4 mg/kg b.w.)) [%] | Reduction of liver cholesterol level compared to disease group ([1]; low dose (0.4 mg/kg b.w.)) [%] | Binding strength to CYP2E1 (rank) (CYP2E1) | Serum LDL cholesterol below the reference value of group 1 ([1]; average over doses) [%] | Reduction of serum VLDL level ([1]; medium concentration (4 mg/kg b.w.)) [%] | Liver cholesterol level below the reference value of group 1 ([1]; medium dose (4 mg/kg b.w.)) [%] | Reduction of liver cholesterol level compared to disease group ([1]; medium dose (4 mg/kg b.w.)) [%]
1 | CCCCCCCCCCCCn1ccnc1 [I‐an, 1‐imidazolyldodecane] | strong inhibitors of CYP2E1 | strong and very highly significant (p < 0.001), linear, dose‐dependent effect | 53 | 4 | 15 | 33 | 13% | non‐significant trend toward lowering the serum LDL level | 12% | 3 | 8 | 18 |  |  |  |  | 
2 | OCCCCCCCCCCCCn1ccnc1 [I‐ol, 12‐imidazolyl‐1‐dodecanol] | strong inhibitors of CYP2E1 |  |  |  | 18 | 41 | no therapeutic effect | 28% | no therapeutic effect |  |  |  | highest affinity | 11 | 19 | 7 | 17
